Laboratory results published in PubChem BioAssay (NCI).
Values joined by “and” are separate entries in the source; they are usually repeats but may differ in a detail not shown here. Identical values can stand only once.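 Results reflect a 48-hour exposure of cells in 96-well plates to compound at five concentrations. Abbreviation: GI50, concentration required for 50% inhibition of growth. Definition used: TGI = concentration required for complete inhibition of growth.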

Columns and labels:
Assay in all cases: NCI anticancer screen, dose series, 48 h
CAKI-1 renal = system: CAKI-1 renal
U251 CNS = system: U251 CNS
NCI/ADR-RES ovarian = system: NCI/ADR-RES ovarian
SR leukemia = system: SR leukemia
HCT-116 colon = system: HCT-116 colon
M14 melanoma = system: M14 melanoma
HS 578T breast = system: HS 578T breast
MDA-MB-231 breast = system: MDA-MB-231 breast
UACC-62 melanoma = system: UACC-62 melanoma
MDA-MB-435 = system: MDA-MB-435

SMILES | GI50 (CAKI-1 renal) | TGI (CAKI-1 renal) | GI50 (U251 CNS) | TGI (U251 CNS) | GI50 (NCI/ADR-RES ovarian) | TGI (NCI/ADR-RES ovarian) | GI50 (SR leukemia) | TGI (SR leukemia) | GI50 (HCT-116 colon) | TGI (HCT-116 colon) | GI50 (M14 melanoma) | TGI (M14 melanoma) | GI50 (HS 578T breast) | TGI (HS 578T breast) | GI50 (MDA-MB-231 breast) | TGI (MDA-MB-231 breast) | GI50 (UACC-62 melanoma) | TGI (UACC-62 melanoma) | GI50 (MDA-MB-435) | TGI (MDA-MB-435)
COc1ccc(/C=N/NC(=O)c2cccc3cc[nH]c23)cc1O | 0.192 µM | > 49 µM | 2.4 µM | > 100 µM | 1.86 µM | > 100 µM | 0.349 µM | > 41.2 µM | 1.72 µM | > 100 µM | 1.13 µM | > 100 µM | 1.47 µM | > 30.3 µM | 0.685 µM | > 35 µM | 0.878 µM | > 35.1 µM |  | 
N#Cc1c[nH]n2c(N=Nc3ccc(Cl)cc3)c(O)nc12 | 85.9 µM | > 100 µM | 35.6 µM | > 100 µM | 25 µM | 83.8 µM | 25.4 µM | > 100 µM | 92.8 µM | > 100 µM | 77.3 µM | > 100 µM | 56.9 µM | > 100 µM | 16.2 µM | > 100 µM | 17.2 µM | 57 µM | 44.3 µM | > 100 µM
CN(C)c1cc(NN=C(c2ccc(O)cc2)c2ccc(O)cc2)c([N+](=O)[O-])cc1[N+](=O)[O-] | 6.76 µM | 20.2 µM | 5.61 µM | 18.3 µM | 5.3 µM | 27 µM | 3.15 µM | 22.8 µM | 5.14 µM | 21.1 µM | 9.06 µM | 22.6 µM |  |  | 4.72 µM | 17.5 µM | 3.41 µM | 14.4 µM | 3.02 µM | 14.3 µM
CC1(COc2ccc3c(c2)ncn3-c2ccc3cccc(N4CCC(N)CC4)c3n2)COC1 | 4.75 µM and 3.55 µM | 19.6 µM and > 10 µM | 1.7 µM and 1.87 µM | 4.09 µM and 5.66 µM | 7.04 µM and > 10 µM | 20.6 µM and > 10 µM | 0.769 µM and 0.347 µM | 4.7 µM and 2.4 µM | 0.894 µM and 1.03 µM | 5.35 µM and > 10 µM | 3.55 µM and 2.68 µM | 10.1 µM and 6.77 µM | 2.08 µM and 0.385 µM | 15.3 µM and 4.77 µM | 2.55 µM and 1.88 µM | 8.69 µM and 7.63 µM | 16.7 µM and > 10 µM | 34.4 µM and > 10 µM | 3.06 µM and 3.25 µM | 10.5 µM and > 10 µM
